In ChEMBL document CHEMBL1949584, “Design and synthesis of novel inhibitors of human kynurenine aminotransferase-I” (Bioorg Med Chem Lett, 2012) one finds IC50 and Ratio IC50 data, which are given here for twelve compounds.

For the first assay, the target named is T1, Kynurenine--oxoglutarate transaminase 1 (Homo sapiens, UniProt Q16773).
T1 sequence (Q16773 whole entry): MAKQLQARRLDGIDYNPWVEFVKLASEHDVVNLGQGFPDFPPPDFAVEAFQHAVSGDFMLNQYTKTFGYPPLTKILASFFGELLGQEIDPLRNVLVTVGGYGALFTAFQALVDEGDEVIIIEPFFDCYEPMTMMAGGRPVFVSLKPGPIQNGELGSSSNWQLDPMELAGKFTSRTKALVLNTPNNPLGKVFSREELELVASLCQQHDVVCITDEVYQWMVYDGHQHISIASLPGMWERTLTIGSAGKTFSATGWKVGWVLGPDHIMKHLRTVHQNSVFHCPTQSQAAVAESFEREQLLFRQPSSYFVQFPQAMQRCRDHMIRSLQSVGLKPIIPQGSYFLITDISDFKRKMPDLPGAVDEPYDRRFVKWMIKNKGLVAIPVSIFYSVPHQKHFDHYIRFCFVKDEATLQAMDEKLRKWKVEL
Briefly: Inhibition of human recombinant KAT1 after 20 mins by RP-HPLC analysis.
As to `CCOC(=O)/C(CCCC(=O)O)=N\Nc1ccc(OC)cc1`, the IC50 amounted to 43 µM.

As to `CCOC(=O)/C(CCCC(=O)O)=N\Nc1ccc([N+](=O)[O-])cc1`, the IC50 was found to be 179 µM. For the compound `O=C(O)CCc1c(C(=O)O)[nH]c2ccc([N+](=O)[O-])cc12`, the IC50 amounted to 666 µM. Same read-out and setting: in the case of `CCOC(=O)/C(CCCC(=O)O)=N\Nc1cccc(Cl)c1` it was 20 µM. Same read-out and setting: with `CCOC(=O)/C(CCCC(=O)O)=N\Nc1ccc(Cl)cc1` the figure was 20 µM; with `O=C(O)CCc1c(C(=O)O)[nH]c2ccc(Cl)cc12`, 293 µM.

Turning to `COc1ccc2[nH]c(C(=O)O)c(CCC(=O)O)c2c1`, the IC50 is > 6000 µM.

Regarding `CCOC(=O)/C(CCCC(=O)O)=N\Nc1ccc(I)cc1`, the IC50 stood at 34 µM. As for `CCOC(=O)/C(CCCC(=O)O)=N\Nc1ccc(Br)cc1`, the IC50 was 21 µM. On to `O=C(O)CCc1c(C(=O)O)[nH]c2ccc(Br)cc12`, for which the IC50 turned out to be 271 µM. As to `Cc1ccc2[nH]c(C(=O)O)c(CCC(=O)O)c2c1`, the IC50 was > 1000 µM. Same read-out and setting: in the case of `CCOC(=O)/C(CCCC(=O)O)=N\Nc1ccc(C)cc1` it was 33 µM.

Another assay has as its target T2, Kynurenine--oxoglutarate transaminase 1 (Homo sapiens) (UniProt Q16773).
T2 sequence (whole entry): T1 sequence (Q16773 whole entry)
Put plainly: Ratio of compound IC50 to indole-3-propionic acid IC50 for human recombinant KAT1.
For `CCOC(=O)/C(CCCC(=O)O)=N\Nc1cccc(Cl)c1`, the Ratio IC50 was 7. Turning to `CCOC(=O)/C(CCCC(=O)O)=N\Nc1ccc(Cl)cc1`, the Ratio IC50 stood at 7.

Broadly, the IC50 is the midpoint of a concentration-inhibition curve.
